The record followed here is US8802674B2, “Aminopyrimidine derivatives as LRRK2 modulators” (Genentech, Inc., priority 2011, dated 2014).

What is called Ki is a measure of affinity in units of concentration, obtained from inhibition or displacement. A high value points to weaker binding.

Each structure is given as a SMILES string.

Sequence of LRRK2 (Q5S007 970-2527 G2019S limits assumed): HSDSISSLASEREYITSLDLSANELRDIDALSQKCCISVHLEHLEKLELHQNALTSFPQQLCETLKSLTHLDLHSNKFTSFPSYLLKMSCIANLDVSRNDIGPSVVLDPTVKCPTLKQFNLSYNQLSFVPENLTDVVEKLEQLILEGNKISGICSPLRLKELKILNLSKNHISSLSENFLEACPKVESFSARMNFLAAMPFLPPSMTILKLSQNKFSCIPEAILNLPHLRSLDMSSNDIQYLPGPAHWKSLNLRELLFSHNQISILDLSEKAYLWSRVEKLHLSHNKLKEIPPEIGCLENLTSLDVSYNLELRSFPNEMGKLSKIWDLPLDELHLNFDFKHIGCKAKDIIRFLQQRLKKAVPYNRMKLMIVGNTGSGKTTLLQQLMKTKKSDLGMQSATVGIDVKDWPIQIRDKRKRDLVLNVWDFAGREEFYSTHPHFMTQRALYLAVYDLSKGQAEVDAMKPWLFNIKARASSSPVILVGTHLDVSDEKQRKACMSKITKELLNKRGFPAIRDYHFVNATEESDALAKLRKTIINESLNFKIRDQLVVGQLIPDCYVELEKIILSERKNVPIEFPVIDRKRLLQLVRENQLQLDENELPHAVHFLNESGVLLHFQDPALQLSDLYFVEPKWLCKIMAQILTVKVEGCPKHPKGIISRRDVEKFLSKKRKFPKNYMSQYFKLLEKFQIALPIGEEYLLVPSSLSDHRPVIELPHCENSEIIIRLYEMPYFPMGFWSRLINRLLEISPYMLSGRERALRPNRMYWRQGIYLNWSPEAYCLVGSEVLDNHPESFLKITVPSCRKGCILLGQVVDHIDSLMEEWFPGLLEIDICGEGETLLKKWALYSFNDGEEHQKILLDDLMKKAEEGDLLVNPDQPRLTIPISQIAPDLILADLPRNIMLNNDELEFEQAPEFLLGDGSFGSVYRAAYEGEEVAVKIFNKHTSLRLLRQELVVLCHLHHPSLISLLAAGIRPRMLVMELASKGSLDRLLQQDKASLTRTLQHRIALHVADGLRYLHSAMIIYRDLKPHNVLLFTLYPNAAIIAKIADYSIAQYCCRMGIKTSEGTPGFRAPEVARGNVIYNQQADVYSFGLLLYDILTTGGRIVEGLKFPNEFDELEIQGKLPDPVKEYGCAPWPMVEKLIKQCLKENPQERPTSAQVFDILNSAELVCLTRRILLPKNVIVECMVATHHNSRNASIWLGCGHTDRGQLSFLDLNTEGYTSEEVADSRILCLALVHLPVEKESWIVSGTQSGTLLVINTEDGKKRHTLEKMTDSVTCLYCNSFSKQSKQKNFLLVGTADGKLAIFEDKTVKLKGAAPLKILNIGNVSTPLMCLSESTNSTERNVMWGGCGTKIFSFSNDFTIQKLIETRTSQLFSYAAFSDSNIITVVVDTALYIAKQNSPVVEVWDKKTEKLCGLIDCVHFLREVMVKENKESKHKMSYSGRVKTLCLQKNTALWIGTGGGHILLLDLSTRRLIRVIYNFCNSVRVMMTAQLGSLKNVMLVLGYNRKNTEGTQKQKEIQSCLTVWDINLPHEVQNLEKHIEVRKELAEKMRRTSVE

The assay concerns the target LRRK2 (Homo sapiens (Human), UniProt Q5S007, G2019S). Briefly: In Vitro LRRK2 LabChip Assay. In kind it is biochemical. The settings on record: Table 4. As for the experimental part:
In Vitro LRRK2 LabChip Assay
This assay was used to determine a compound's potency in inhibiting activity of LRRK2 by determining, Kiapp, IC50, or percent inhibition values. In a polypropylene plate, LRRK2, fluorescently-labeled peptide substrate, ATP and test compound were incubated together. Using a LabChip 3000 (Caliper Life Sciences), after the reaction the substrate was separated by capillary electrophoresis into two populations: phosphorylated and unphosphorylated. The relative amounts of each were quantitated by fluorescence intensity. LRRK2 Ki was determined according to the equation: Y=V0*(1−((x+Ki*(1+S/Km)+Et)/(2*Et)−(((x+Ki*(1+S/Km)+Et)^2−(4*Et*x))^0.5)/(2*Et))). Ki values in Table 4 and elsewhere herein are shown in μM.
Assay conditions and materials used were as follows:
Compound Plate Preparation:
For serial dilutions, 34.6 μl DMSO was added to columns 3-24. For the assay controls, 37.5 μl DMSO was added to columns 1 and 2 of rows A and P. a,d and 50 μl 25 μM G-028831 (Staurosporine) was added to columns 1 and 2, row B. For the samples: to start at 100 μM, 37.5 μl DMSO was to columns 1 and 2, then 12.5 μl 10 mM compound; to start at 10 μM, 78 μl DMSO was added to columns 1 & 2, then 2 μl 10 mM compound; and to start at 1 μM, 25 μM compound (2 μl 10 mM cmpd+798 μl DMSO) was added to empty columns 1 and 2. A Precision instrument was used to perform 1:3.16 serial dilutions (“PLK_BM_serial_halflog”).
ATP was diluted to 282.1 μM in Complete Kinase Buffer (final concentration was 130 μM).
Total and Blank Preparation:
In Complete Reaction Buffer, substrate was diluted to 4 μM. Equal volumes of Complete Reaction Buffer and 4 μM substrate were combined to obtain the blank. Equal volumes of Complete Reaction Buffer and 4 μM substrate were combined and to the combined solution was added 2× final LRRK2 concentration.
To a 50 μl polypropylene plate, 5 μl/well buffer/substrate was added by hand to Blank wells. A Biomek FX was used to start the kinase reaction (“PLK SAR 23 ATP”). The following were added to the appropriate wells:
5 μl/well compound/ATP in Assay Plate;
5 μl/well kinase/substrate in Assay Plate;
The plate was incubated for 2 hours in the dark. Biomek FX was used to stop the kinase reaction (“PLK Stop”), and 10 μl/well Stop solution was added to the Assay Plate. Results were read on the LabChip 3000.
The LabChip 3000 was run using the job “LRRK2IC50” with the following job settings: […]
For `CNc1nc(Nc2ccc(C(=O)N3CCC(F)C3)cc2OC)ncc1C#N` (stereo in doubt) [Example 210, 2-[4-((R)-3-Fluoropyrrolidine-1-carbonyl)-2-methoxy-phenylamino]-4-methylamino-pyrimidine-5-carbonitrile], the Ki amounted to 9.3 nM. In turn, `CNc1nc(Nc2ccc(C(=O)N3CCC(O)CC3)cc2OC)ncc1F` [Example 2, [4-(5-Fluoro-4-methylamino-pyrimidin-2-ylamino)-3-methoxy-phenyl]-(4-hydroxy-piperidin-1-yl)-methanone] registered an inhibitory constant (Ki) of 44.6 nM. Compared with the last compound, the Ki is about 4.8-fold higher. In the case of `CNc1nc(Nc2ccc(C(=O)N(C)C)cc2OC)ncc1Cl` [Example 4, 4-(5-Chloro-4-methylamino-pyrimidin-2-ylamino)-3-methoxy-N,N-dimethyl-benzamide] it was 6.1 nM; in that of `CNc1nc(Nc2ccc(C(=O)NC3CC3)cc2OC)ncc1Cl` [Example 5, 4-(5-Chloro-4-methylamino-pyrimidin-2-ylamino)-N-cyclopropyl-3-methoxy-benzamide], 2.4 nM; in that of `CNc1nc(Nc2ccc(C(=O)N3CCOCC3)cc2OC(F)F)ncc1Cl` [Example 7, [4-(5-Chloro-4-methylamino-pyrimidin-2-ylamino)-3-difluoromethoxy-phenyl]-morpholin-4-yl-methanone], 4.9 nM. With `CNc1nc(Nc2ccc(C(=O)N3CCN4CCCCC4C3)cc2OC)ncc1Cl` (stereo not shown) [Example 8, [4-(5-Chloro-4-methylamino-pyrimidin-2-ylamino)-3-methoxy-phenyl]-(octahydro-pyrido[1,2-a]pyrazin-2-yl)-methanone] the figure was 3.5 nM; with `CNc1nc(Nc2ccc(C(=O)N3CC(C)CC(C)C3)cc2OC)ncc1Cl` (stereo not shown) [Example 11, [4-(5-Chloro-4-methylamino-pyrimidin-2-ylamino)-3-methoxy-phenyl]-(3,5-dimethyl-piperidin-1-yl)-methanone], 6.2 nM.

The compound `CNc1nc(Nc2ccc(C(=O)N3CCCCC3)cc2OC)ncc1Cl` [Example 15, [4-(5-Chloro-4-methylamino-pyrimidin-2-ylamino)-3-methoxy-phenyl]-piperidin-1-yl-methanone] gave a Ki of 2.5 nM. With `CNc1nc(Nc2ccc(C(=O)N3CCC3)cc2OC)ncc1Cl` [Example 16, Azetidin-1-yl-[4-(5-chloro-4-methylamino-pyrimidin-2-ylamino)-3-methoxy-phenyl]-methanone] the figure was 5.2 nM; with `CNc1nc(Nc2ccc(C(=O)N3CCC(F)(F)CC3)cc2OC)ncc1Cl` [Example 17, [4-(5-Chloro-4-methylamino-pyrimidin-2-ylamino)-3-methoxy-phenyl]-(4,4-difluoro-piperidin-1-yl)-methanone], 3 nM. Turning to `CNc1nc(Nc2ccc(C(=O)N3CCN(C(C)=O)CC3)cc2OC)ncc1Cl` [Example 25, l-{4-[4-(5-Chloro-4-methylamino-pyrimidin-2-ylamino)-3-methoxy-benzoyl]-piperazin-1-yl}-ethanone], the Ki was 3.4 nM.

`CNc1nc(Nc2ccc(C(=O)N3CCCC(C(F)(F)F)C3)cc2OC)ncc1Cl` (stereo not shown) [Example 26, [4-(5-Chloro-4-methylamino-pyrimidin-2-ylamino)-3-methoxy-phenyl]-(3-trifluoromethyl-piperidin-1-yl)-methanone] came in with a Ki of 2.8 nM. Take `CNc1nc(Nc2ccc(C(=O)N3CCCC3C)cc2OC)ncc1Cl` (stereo not shown) [Example 29, [4-(5-Chloro-4-methylamino-pyrimidin-2-ylamino)-3-methoxy-phenyl]-(2-methyl-pyrrolidin-1-yl)-methanone]: the affinity, expressed as Ki, was 3.8 nM.

With `CNc1nc(Nc2ccc(C(=O)N3CCCC3)cc2OC)ncc1Cl` [Example 32, [4-(5-Chloro-4-methylamino-pyrimidin-2-ylamino)-3-methoxy-phenyl]-pyrrolidin-1-yl-methanone], the Ki is 4.7 nM. With `CNc1nc(Nc2ccc(C(=O)N3CCN(S(C)(=O)=O)CC3)cc2OC)ncc1Cl` [Example 33, [4-(5-Chloro-4-methylamino-pyrimidin-2-ylamino)-3-methoxy-phenyl]-(4-methanesulfonyl-piperazin-1-yl)-methanone] the figure was 3.6 nM. In turn, `CCC1(CC)CN(C(=O)c2ccc(Nc3ncc(Cl)c(NC)n3)c(OC)c2)CCO1` [Example 39, [4-(5-Chloro-4-methylamino-pyrimidin-2-ylamino)-3-methoxy-phenyl]-(2,2-diethyl-morpholin-4-yl)-methanone] displayed a Ki of 5.5 nM. This Ki is about 1.5-fold higher than that of the compound before. With `CNc1nc(Nc2ccc(C(=O)N3CCOCC3CO)cc2OC)ncc1Cl` (stereo not shown) [Example 40, [4-(5-Chloro-4-methylamino-pyrimidin-2-ylamino)-3-methoxy-phenyl]-(3-hydroxymethyl-morpholin-4-yl)-methanone] the figure was 4.4 nM; with `CNc1nc(Nc2ccc(C(=O)N3CCOC(CC(C)C)C3)cc2OC)ncc1Cl` (stereo not shown) [Example 41, [4-(5-Chloro-4-methylamino-pyrimidin-2-ylamino)-3-methoxy-phenyl]-(2-isobutyl-morpholin-4-yl)-methanone], 4.2 nM.

Compound `CNc1nc(Nc2ccc(C(=O)N3CCNCC3)cc2OC)ncc1Cl` [Example 47, [4-(5-Chloro-4-methylamino-pyrimidin-2-ylamino)-3-methoxy-phenyl]-piperazin-1-yl-methanone] came in with an inhibition constant Ki of 2.8 nM. Against the preceding compound, the Ki is about 1.5-fold lower. The compound `CCOc1cc(C(=O)N2CCOCC2)ccc1Nc1ncc(Cl)c(NC)n1` [Example 49, [4-(5-Chloro-4-methylamino-pyrimidin-2-ylamino)-3-ethoxy-phenyl]-morpholin-4-yl-methanone] registered a Ki of 4.3 nM. This Ki is about 1.5-fold higher than that of the compound before. Regarding `CNc1nc(Nc2ccc(C(=O)N3CCOCC3)cc2OC)ncc1C(F)(F)F` [Example 50, [3-Methoxy-4-(4-methylamino-5-trifluoromethyl-pyrimidin-2-ylamino)-phenyl]-morpholin-4-yl-methanone], the Ki was determined as 2.7 nM. Against the preceding compound, the Ki is about 1.6-fold lower. As to `CNc1nc(Nc2ccc(C(N)=O)cc2OC)ncc1Cl` [Example 51, 4-(5-Chloro-4-methylamino-pyrimidin-2-ylamino)-3-methoxy-benzamide], the Ki stood at 5.1 nM. This Ki lies about 1.9-fold higher than the previous one. Compound `CNc1nc(Nc2ccc(C(=O)NC(C)C)cc2OC)ncc1Cl` [Example 53, 4-(5-Chloro-4-methylamino-pyrimidin-2-ylamino)-N-isopropyl-3-methoxy-benzamide] returned a Ki of 2 nM. In the case of `CNc1nc(Nc2ccc(C(=O)N3C4CCC3COC4)cc2OC)ncc1Cl` [Example 57, [4-(5-Chloro-4-methylamino-pyrimidin-2-ylamino)-3-methoxy-phenyl]-(3-oxa-8-aza-bicyclo[3.2.1]oct-8-yl)-methanone] it was 2.5 nM. On to `COc1cc(C(=O)N2CCOCC2)ccc1Nc1ncc(Cl)c(OC(C)C)n1` [Example 59, [4-(5-Chloro-4-isopropoxy-pyrimidin-2-ylamino)-3-methoxy-phenyl]-morpholin-4-yl-methanone], for which the affinity corresponds to a Ki of 13 nM. In turn, `COc1cc(C(=O)N2CCOCC2)ccc1Nc1ncc(Cl)c(OC)n1` [Example 61, [4-(5-Chloro-4-methoxy-pyrimidin-2-ylamino)-3-methoxy-phenyl]-morpholin-4-yl-methanone] showed a Ki of 10.4 nM. On to `CNc1nc(Nc2ccc(C(=O)N3CC4CC3CO4)cc2OC)ncc1Cl` (stereo not shown) [Example 62, [4-(5-Chloro-4-methylamino-pyrimidin-2-ylamino)-3-methoxy-phenyl]-(2-oxa-5-aza-bicyclo[2.2.1]hept-5-yl)-methanone], for which the Ki was 4.5 nM.

With `CNc1nc(Nc2ccc(C(=O)N3CC4CCC(C3)O4)cc2OC)ncc1Cl` [Example 63, [4-(5-Chloro-4-methylamino-pyrimidin-2-ylamino)-3-methoxy-phenyl]-(8-oxa-3-aza-bicyclo[3.2.1]oct-3-yl)-methanone], affinity was put at a Ki of 2 nM. On to `CNc1nc(Nc2ccc(C(=O)NCCCN)cc2OC)ncc1Cl` [Example 65, N-(3-Amino-propyl)-4-(5-chloro-4-methylamino-pyrimidin-2-ylamino)-3-methoxy-benzamide], for which the Ki came out at 2.3 nM. With `CNc1nc(Nc2ccc(C(=O)N3CCOCC3)cc2OC)ncc1C1CC1` [Example 66, [4-(5-Cyclopropyl-4-methylamino-pyrimidin-2-ylamino)-3-methoxy-phenyl]-morpholin-4-yl-methanone], the affinity, expressed as Ki, was 35.9 nM. Take `COc1cc(C(=O)N2CCOCC2)ccc1Nc1ncc(Cl)c(NCC(C)C)n1` [Example 67, [4-(5-Chloro-4-isobutylamino-pyrimidin-2-ylamino)-3-methoxy-phenyl]-morpholin-4-yl-methanone]: the affinity, expressed as Ki, was 4 nM.
